Experiments:
A3 receptors = molecular target: T1, A3 receptors (Homo sapiens, UniProt P0DMS8); experiment: Ligand status at adenosine A3 receptor; type: binding
T1 sequence (P0DMS8 1-318): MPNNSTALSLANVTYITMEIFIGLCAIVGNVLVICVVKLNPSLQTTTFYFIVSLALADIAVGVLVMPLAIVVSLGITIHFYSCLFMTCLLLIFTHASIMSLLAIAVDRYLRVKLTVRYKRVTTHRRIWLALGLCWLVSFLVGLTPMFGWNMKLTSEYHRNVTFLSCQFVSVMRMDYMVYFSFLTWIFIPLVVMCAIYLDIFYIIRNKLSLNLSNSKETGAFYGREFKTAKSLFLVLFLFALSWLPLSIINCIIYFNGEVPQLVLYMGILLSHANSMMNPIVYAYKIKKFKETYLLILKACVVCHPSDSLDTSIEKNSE

[1] = previous studies; cited from earlier work

NC(=O)c1ncn(C2OC(CNCc3ccccc3)C(O)C2O)c1N [GP-531, 5-amino-1-β-D-(5-benzylamino-5-deoxy-1-β-D-ribofuranosyl)imidazole-4 carboxamide]
Ligand for A3 receptors (A3 receptors): has not been shown to be a ligand | Metabolism [1]: not metabolized | Route of clearance [1]: cleared almost entirely intact in urine

— patent US9492468B2, “Methods and compositions for treatment of acute heart failure” (PERICOR THERAPEUTICS, INC., priority 2008, dated 2016)
